From ChEMBL document CHEMBL1136694, “Aryl tetrahydropyridine inhibitors of farnesyltransferase: bioavailable analogues with improved cellular potency” (Bioorg Med Chem Lett, 2003)

Tests used:
[1] = target: Geranylgeranyl transferase type I (Homo sapiens, UniProt P49354+P53609); experiment: In vitro inhibition of geranylgeranyltransferase-1; assay type: protein-complex assay
[2] = Compound was tested for orally bioavailable in dogs with a half life of 0.7 hr; assay type: ADME, organism-based, Canis lupus familiaris; conditions: dog, in vivo, po
[3] = target: Protein farnesyltransferase (Mus musculus, UniProt Q61239+Q8K2I1); experiment: Inhibition of Ras farnesylation in Human Ha-Ras oncogene-transformed BALB/c 3T3 cells (EJ3 cells); assay type: functional, cell-based
[4] = target: Protein farnesyltransferase (Homo sapiens, UniProt P49354+P49356); experiment: In vitro inhibition of farnesyltransferase; assay type: protein-complex assay
[5] = Compound was tested for orally bioavailable in dogs with a half life of 1.2h; assay type: ADME, organism-based, Canis lupus familiaris; conditions: dog, in vivo, po

SMILES	IC50 [1] [nM]	bioavailability [2] [%]	EC50 [3] [nM]	IC50 [4] [nM]	bioavailability [5] [%]
N#CC1=C(c2cccc3ccccc23)CN(C(=O)Cc2cncn2Cc2ccc(Cl)cc2)CC1	> 10000		> 100	35	
N#CC1=C(c2cccc3ccccc23)CN(C(=O)CCc2cncn2Cc2ccc(C#N)cc2)CC1	1300		28	1.4	
COC1=C(C#N)CCN(C(=O)Cc2cncn2Cc2ccc(C#N)c(-c3cccc4ccccc34)c2)C1	2700		> 100	1.4	
Cn1cncc1C(NN1CCC(C#N)=C(c2cccc3ccccc23)C1)c1ccc(C#N)cc1 (stereo not drawn)	600		0.5	0.5	27
Cn1cncc1C(O)(CN1CCC(C#N)=C(c2cccc3ccccc23)C1)c1ccc(C#N)cc1 (stereo not drawn)	540		4	0.48	
Cn1cncc1C(c1ccc(C#N)cc1)N1CCC(C#N)=C(c2cccc3ccccc23)C1 (stereo not drawn)	161000		31	0.5	

Continued, values first:

IC50 [1] [nM]	bioavailability [2] [%]	EC50 [3] [nM]	IC50 [4] [nM]	bioavailability [5] [%]	SMILES
4500	10	3.9			N#CC1=C(c2cccc3ccccc23)CN(C(=O)Cc2cncn2Cc2ccc(C#N)cc2)CC1
1400		> 1	3.1		Cn1cncc1CN(Cc1ccc(C#N)c(Br)c1)C(=O)N1CCC(C#N)=C(c2cccc3ccccc23)C1
1300		> 100	15		N#CC1=C(c2cccc3ccccc23)CN(C(=O)Cc2cncn2Cc2ccc(C#N)c(Cl)c2)CC1
4000		97	3.5		Cn1cncc1CN(Cc1ccc(C#N)cc1)C(=O)N1CCC(C#N)=C(c2cccc3ccccc23)C1
10000			59		Cn1cncc1CN(Cc1cccc(C#N)c1)C(=O)N1CCC(C#N)=C(c2cccc3ccccc23)C1
1600		> 100	0.92		CN(Cc1ccc(C#N)cc1)[C@H](Cc1cncn1C)C(=O)N1CCC(C#N)=C(c2cccc3ccccc23)C1
1500			20		Cn1cncc1CN(Cc1ccc(Cl)c(Cl)c1)C(=O)N1CCC(C#N)=C(c2cccc3ccccc23)C1
